Assay results as given in patent US20130338574A1, “ORAL MEDICINAL COMPOSITION FOR PATIENTS UNDERGOING PERITONEAL DIALYSIS AND METHOD FOR USING SAME” (TOKAI UNIVERSITY EDUCATIONAL SYSTEM, priority 2010, published 2013).

Assays:
[1] = system: dicarbonyl compounds (3-deoxyglucosone) in the intraperitoneal fluid; assay: 3-deoxyglucosone in intraperitoneal fluid of uremic rat models, acid peritoneal dialysis fluid (Experimental Example 2); assay type: in vivo, Sprague-Dawley male rats; conditions: oral 30 mg/rat/day, 7 days
Excerpt: The uremic rat models were produced using 7-week-old (body weight: 300 g or less) Sprague-Dawley male rats (CLEA Japan, Inc.) by the method described in NPL 27 and NPL 28. More specifically, the above rats were first subjected to 1/3 nephrectomy under anesthesia, and then to 1/2 nephrectomy after a week, thereby producing 5/6 nephrectomy rats (rats with kidney subtotal excision). These rats were allowed to freely take a standard diet for experimental rats (containing 1.06% calcium, 0.9% phosphate, and 21% protein; CE2: CLEA Japan, Inc.) and tap water until the eve of slaughter. […]
When the quantitative analysis of pyridoxamine and dicarbonyl compounds (3-deoxyglucosone) in the samples was performed by liquid chromatography (HPLC), the above frozen test samples (serum and intraperitoneal fluid) were used after natural thawing at room temperature. […]
The quantitative analysis of dicarbonyl compounds (3-deoxyglucosone) was performed by reversed-phase high-performance liquid chromatography (HPLC) under the following conditions. The quantitative analysis was performed using a standard calibration curve previously prepared by measurement under the following HPLC conditions using standard solutions of 3-deoxyglucosone of known concentrations. […]
Detection: UV detection of absorbance at a wavelength of 315 nm (UV detector: Shimadzu Corporation)

[2] = system: pentosidine in the peritoneal tissue; assay: Peritoneum protective effect: pentosidine in peritoneal tissue of uremic rat models (Experimental Example 4); assay type: in vivo, rats; conditions: oral 30 mg/rat/day, 7 days
Description: The protective effect of oral administration of a pyridoxamine salt on the deterioration of the peritoneum caused by peritoneal dialysis was evaluated. More specifically, uremic rat models were subjected to intraperitoneal administration of a peritoneal dialysis fluid together with oral administration of a pyridoxamine salt, and the concentration of pentosidine in the peritoneal tissue, which was an indicator of tissue degeneration caused by enhanced carbonyl stress, was measured. Pentosidine is an advanced glycation/lipoxidation end product (AGE). Kidney subtotal excision rats were produced in the same manner as in Experimental Example 2. […] The sample for pentosidine measurement prepared in the above manner was subjected to HPLC under the following conditions, and pentosidine contained in the peritoneum was quantitatively analyzed. The quantitative analysis was performed using a standard calibration curve previously prepared by measurement under the following HPLC conditions using standard solutions of synthetic pentosidine of known concentrations. […] Stationary phase: C18 column (Puresil, 4.6×250 mm, 5 μm; Nihon Waters K.K.) Flow rate: 0.8 mL/min Detection: Fluorescence detection (excitation wavelength: 335 nm/absorption wavelength: 385 nm) (fluorescence detector: Shimadzu Corporation) Sample volume: 20 μL

For Cc1ncc(CO)c(CN)c1O.Cl.Cl [pyridoxamine dihydrochloride, Pyridoxamine dihydrochloride], which “3-deoxyglucosone concentration in the peritoneal cavity relative to control group” value ([1]; acid peritoneal dialysis fluid) is on record?
The value was “less than one-third”.

What about the “3-deoxyglucosone concentration in intraperitoneal fluid” value ([1]; acid peritoneal dialysis fluid (pH 4.5 to 5.5) Dianeal PD-4 4.25, 20 ml i.p., control group 30.8) of the same molecule?
The value was 9.9 µg/mL.

What about the “pentosidine concentration in the peritoneum tissue compared with control group” value ([2]; acid peritoneal dialysis fluid) of the same molecule?
Its value is “significantly lower”.

What about the “Pentosidine concentration in peritoneal tissue” value ([2]; per mg of peritoneum (wet mass), acid peritoneal dialysis fluid 20 ml i.p., control group 0.065) of the same molecule?
Its value is 0.022 pmol/mg.
